The supplement of paper PMC10307832

Columns and labels:
Experiment in all cases: relative viability (nuclei count vs DMSO), 5 days (fraction); higher = more cells survive
NCI-H2023 = system: NCI-H2023
Outline: (§1)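 Cells from lung cancer lines were seeded into 1536-well plates and, one day later, dosed by pin tool. Treatments were either a single drug or a fixed dose of an anchor drug with five library-drug doses (not always all listed) in √10 steps. After 5 days, nuclei were stained in a one-step fixation (final 0.05% Triton X-100, 1% formaldehyde, 1 ug/ml Hoechst) and counted on 4× images, and relative viability is the treated-to-vehicle nuclei ratio, as the median of duplicate plates.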

NCI-H2085 = system: NCI-H2085
Outline: as §1

NCI-H2170 = system: NCI-H2170
Outline: as §1

NCI-H2342 = system: NCI-H2342
Outline: as §1

NCI-H23 = system: NCI-H23
Outline: as §1

NCI-H2405 = system: NCI-H2405
Outline: as §1

NCI-H322M = system: NCI-H322M
Outline: as §1

NCI-H650 = system: NCI-H650
Outline: as §1

NCI-H727 = system: NCI-H727
Outline: as §1

RERF-LC-KJ = system: RERF-LC-KJ
Outline: as §1

SK-MES-1 = system: SK-MES-1
Outline: as §1

UMC-11 = system: UMC-11
Outline: as §1

Q: Which results are given for `CCCCCCCCCCCC1=C(O)C(=O)C=C(O)C1=O` [Embelin] + CC(=O)Nc1cccc(-n2c(=O)n(C3CC3)c(=O)c3c(Nc4ccc(I)cc4F)n(C)c(=O)c(C)c32)c1 [Trametinib] (partner 0.02 µM)?
A: relative viability (NCI-H2023; first compound 2.53 µM): 0.613; relative viability (NCI-H2023; first compound 8 µM): 0.495; relative viability (NCI-H2085; first compound 0.08 µM): 0.663; relative viability (NCI-H2085; first compound 0.8 µM): 0.579; relative viability (NCI-H2085; first compound 2.53 µM): 0.532; relative viability (NCI-H2085; first compound 8 µM): 0.448; relative viability (NCI-H2170; first compound 0.08 µM): 0.946; relative viability (NCI-H2170; first compound 0.8 µM): 0.877; relative viability (NCI-H2170; first compound 2.53 µM): 1.11; relative viability (NCI-H2170; first compound 8 µM): 0.9; relative viability (NCI-H2342; first compound 0.08 µM): 0.95; relative viability (NCI-H2342; first compound 0.8 µM): 0.806; relative viability (NCI-H2342; first compound 2.53 µM): 0.866; relative viability (NCI-H2342; first compound 8 µM): 0.757; relative viability (NCI-H23; first compound 0.08 µM): 0.344; relative viability (NCI-H23; first compound 0.8 µM): 0.476; relative viability (NCI-H23; first compound 2.53 µM): 0.437; relative viability (NCI-H23; first compound 8 µM): 0.396; relative viability (NCI-H2405; first compound 0.08 µM): 0.664; relative viability (NCI-H2405; first compound 0.8 µM): 0.778; relative viability (NCI-H2405; first compound 2.53 µM): 0.638; relative viability (NCI-H2405; first compound 8 µM): 0.626; relative viability (NCI-H322M; first compound 0.08 µM): 0.53; relative viability (NCI-H322M; first compound 0.8 µM): 0.543; relative viability (NCI-H322M; first compound 2.53 µM): 0.516; relative viability (NCI-H322M; first compound 8 µM): 0.49; relative viability (NCI-H650; first compound 0.08 µM): 0.977; relative viability (NCI-H650; first compound 0.8 µM): 1.47; relative viability (NCI-H650; first compound 2.53 µM): 1.02; relative viability (NCI-H650; first compound 8 µM): 0.987; relative viability (NCI-H727; first compound 0.08 µM): 0.4; relative viability (NCI-H727; first compound 0.8 µM): 0.394; relative viability (NCI-H727; first compound 2.53 µM): 0.39; relative viability (NCI-H727; first compound 8 µM): 0.423; relative viability (RERF-LC-KJ; first compound 0.08 µM): 0.871; relative viability (RERF-LC-KJ; first compound 0.8 µM): 0.977; relative viability (RERF-LC-KJ; first compound 2.53 µM): 0.896; relative viability (RERF-LC-KJ; first compound 8 µM): 0.853; relative viability (SK-MES-1; first compound 0.08 µM): 0.599; relative viability (SK-MES-1; first compound 0.8 µM): 0.588; relative viability (SK-MES-1; first compound 2.53 µM): 0.591; relative viability (SK-MES-1; first compound 8 µM): 0.518; relative viability (UMC-11; first compound 0.08 µM): 0.698; relative viability (UMC-11; first compound 0.8 µM): 0.869; relative viability (UMC-11; first compound 2.53 µM): 0.758; relative viability (UMC-11; first compound 8 µM): 0.593
